Test results reported in US12448369B2 (Edgewise Therapeutics, Inc., priority 2023, dated 2025).
Blank lines part the entries; values can stand above or below the compound they belong to.

What was measured:
[1] = test system: Rabbit Psoas myofibrils (skeletal myosin ATPase); assay: Myofibril ATPase assay, rabbit psoas (skeletal) myofibrils; format: biochemical; settings: rabbit psoas myofibrils
Procedure, shortened: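 Readout: A340 decline from NADH oxidation, PK/LDH-coupled to ADP release; kinetic reads over 75 min. Buffer: pCa (PIPES, CaCl2, EGTA), pH 7.0. Linear-regression slopes vs vehicle, 4PL fit; reported as concentration giving 75% (Y75) or 125% (Y125) of vehicle activity.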

[2] = test system: Porcine atria myofibrils (atrial myosin ATPase); assay: Myofibril ATPase assay, porcine atria myofibrils; format: biochemical; settings: porcine atria myofibrils
Procedure, shortened: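 Coupled PK-LDH readout, NADH loss at 340 nm, kinetic 75 min. Porcine atria myofibrils, pCa buffer (PIPES/CaCl2/EGTA, pH 7.0). Slopes (mAU/min) normalized to vehicle = 100%, 4-parameter fit; Y75 or Y125 reported.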

[3] = target: T1, Porcine ventricle myofibrils (ventricular myosin ATPase) (Sus scrofa, UniProt P79293); assay: Myofibril ATPase assay, porcine ventricle myofibrils; format: biochemical, porcine (Yucatan minipigs); settings: porcine ventricle myofibrils
T1 construct: Myofibrils from porcine cardiac muscle was isolated from the left ventricle of Yucatan minipigs; tissue Exemplar Genetics; host or cells: left ventricle of Yucatan minipigs, myofibrils prepared in house
T1 sequence (P79293 whole entry): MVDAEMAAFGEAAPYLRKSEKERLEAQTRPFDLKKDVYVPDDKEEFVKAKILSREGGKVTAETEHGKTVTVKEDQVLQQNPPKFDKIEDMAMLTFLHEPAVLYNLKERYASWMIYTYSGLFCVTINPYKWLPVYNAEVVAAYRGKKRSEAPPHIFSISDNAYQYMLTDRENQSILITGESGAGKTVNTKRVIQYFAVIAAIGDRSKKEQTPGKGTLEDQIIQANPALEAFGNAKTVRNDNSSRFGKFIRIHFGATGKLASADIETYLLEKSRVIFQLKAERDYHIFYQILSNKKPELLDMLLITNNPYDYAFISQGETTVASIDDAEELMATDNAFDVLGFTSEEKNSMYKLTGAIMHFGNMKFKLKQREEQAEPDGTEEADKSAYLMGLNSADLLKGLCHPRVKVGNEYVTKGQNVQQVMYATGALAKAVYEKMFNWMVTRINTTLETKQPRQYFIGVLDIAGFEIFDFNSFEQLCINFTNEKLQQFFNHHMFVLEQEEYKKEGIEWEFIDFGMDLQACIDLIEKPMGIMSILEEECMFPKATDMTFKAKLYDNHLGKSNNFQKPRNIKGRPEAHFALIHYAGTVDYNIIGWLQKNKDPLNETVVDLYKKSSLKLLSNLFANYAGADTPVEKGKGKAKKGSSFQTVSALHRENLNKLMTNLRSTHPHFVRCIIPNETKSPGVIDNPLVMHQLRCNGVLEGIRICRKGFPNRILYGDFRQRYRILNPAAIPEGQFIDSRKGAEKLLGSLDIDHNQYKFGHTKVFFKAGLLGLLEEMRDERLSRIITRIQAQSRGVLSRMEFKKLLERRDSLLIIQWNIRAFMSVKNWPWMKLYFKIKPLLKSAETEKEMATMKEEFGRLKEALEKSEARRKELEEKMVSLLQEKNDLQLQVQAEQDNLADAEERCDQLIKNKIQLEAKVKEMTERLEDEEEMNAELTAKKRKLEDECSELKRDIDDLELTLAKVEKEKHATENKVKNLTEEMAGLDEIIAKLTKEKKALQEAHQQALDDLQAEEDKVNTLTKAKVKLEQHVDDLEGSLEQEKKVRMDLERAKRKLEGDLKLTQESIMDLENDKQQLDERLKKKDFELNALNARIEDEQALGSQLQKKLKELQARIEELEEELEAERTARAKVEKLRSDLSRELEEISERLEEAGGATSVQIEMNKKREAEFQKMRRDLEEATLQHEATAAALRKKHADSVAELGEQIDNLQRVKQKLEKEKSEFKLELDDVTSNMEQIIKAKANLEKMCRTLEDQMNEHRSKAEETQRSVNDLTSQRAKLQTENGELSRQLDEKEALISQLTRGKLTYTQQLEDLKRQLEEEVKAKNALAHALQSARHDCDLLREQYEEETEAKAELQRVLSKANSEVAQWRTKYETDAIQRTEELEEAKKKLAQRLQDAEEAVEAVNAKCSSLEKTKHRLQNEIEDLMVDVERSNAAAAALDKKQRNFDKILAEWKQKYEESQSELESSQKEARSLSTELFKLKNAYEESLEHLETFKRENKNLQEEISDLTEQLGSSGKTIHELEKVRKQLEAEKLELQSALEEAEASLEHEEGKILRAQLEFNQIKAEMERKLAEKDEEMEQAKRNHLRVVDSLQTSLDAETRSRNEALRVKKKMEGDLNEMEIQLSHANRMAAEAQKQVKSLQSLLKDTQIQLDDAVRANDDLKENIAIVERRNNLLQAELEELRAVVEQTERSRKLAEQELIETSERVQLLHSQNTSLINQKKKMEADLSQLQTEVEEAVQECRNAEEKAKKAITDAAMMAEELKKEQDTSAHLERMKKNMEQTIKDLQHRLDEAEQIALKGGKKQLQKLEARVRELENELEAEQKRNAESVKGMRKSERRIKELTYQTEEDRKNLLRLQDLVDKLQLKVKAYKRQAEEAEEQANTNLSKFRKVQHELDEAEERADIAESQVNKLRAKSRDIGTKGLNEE
Procedure, shortened: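 Myofibrils isolated from Yucatan minipig left ventricle; coupled PK/LDH NADH assay, pCa buffer pH 7.0, kinetic A340 reads over 75 min. Vehicle-normalized slopes fit 4PL; Y75/Y125 derived.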

[4] = Y75 value (75% activity relative to no compound)

Structure (SMILES): C[C@@H](NC(=O)Cc1cc2c(C#N)nccc2[nH]c1=O)c1ccc(F)cn1 [compound 474]
Skeletal EC25 ([1]; Y75 value): 15420 nM | Atrial EC25 [2, 4]: 100000 nM | Ventricular EC25 ([3]; Y75 value): 100000 nM

Structure (SMILES): C[C@H](NC(=O)Cc1cc2c(F)c(F)ccc2[nH]c1=O)c1cnc(C#N)cn1 (single isomer, unassigned) [compound 12]
Skeletal EC25 ([1]; Y75 value (no ‡ mark)): 30 nM | Atrial EC25 ([2]; Y75 value (no ‡ mark)): 30 nM | Ventricular EC25 ([3]; Y75 value (no ‡ mark)): 110 nM

Structure (SMILES): C[C@H](NC(=O)Cc1c(C2CC2)c2cc(F)ccc2[nH]c1=O)c1ncc(C#N)cn1 (single isomer, unassigned) [compound 2064]
Skeletal EC25 ([1]; Y75 value (no ‡ mark)): 260 nM | Atrial EC25 ([2]; Y75 value (no ‡ mark)): 77710 nM | Ventricular EC25 ([3]; Y75 value (no ‡ mark)): 32110 nM

Structure (SMILES): Cc1cc(F)cnc1[C@@H](C)NC(=O)C1(c2cc3c(F)c(F)ccc3[nH]c2=O)CC1 (single isomer, unassigned) [compound 4805]
Skeletal EC25 ([1]; Y75 value (no ‡ mark)): 1910 nM | Atrial EC25 ([2]; Y75 value (no ‡ mark)): 1660 nM | Ventricular EC25 ([3]; Y75 value (no ‡ mark)): 100000 nM

Structure (SMILES): C[C@H](NC(=O)Cc1c(C(F)(F)F)c2ncccc2[nH]c1=O)c1ccc(F)cc1F [compound 417]
Skeletal EC25 ([1]; Y75 value): 170 nM | Atrial EC25 [2, 4]: 9700 nM | Ventricular EC25 ([3]; Y75 value): 9500 nM

Structure (SMILES): Cc1c(CC(=O)N[C@H]2CCc3cc(C#N)cnc32)c(=O)[nH]c2ccc(F)cc12 [compound 1093]
Skeletal EC25 ([1]; Y75 value (no ‡ mark)): 100000 nM | Atrial EC25 ([2]; Y75 value (no ‡ mark)): 100000 nM | Ventricular EC25 ([3]; Y75 value (no ‡ mark)): 100000 nM

Structure (SMILES): C[C@@H](NC(=O)C(F)(F)c1cc2c(F)c(F)ccc2[nH]c1=O)c1nccc(C#N)n1 (single isomer, unassigned) [compound 2561]
Skeletal EC25 ([1]; Y75 value (no ‡ mark)): 250 nM | Atrial EC25 ([2]; Y75 value (no ‡ mark)): 230 nM | Ventricular EC25 ([3]; Y75 value (no ‡ mark)): 790 nM

Structure (SMILES): COc1nccc2[nH]c(=O)c([C@H](C)C(=O)N[C@@H](C)c3ccc(F)cc3F)c(C(F)(F)F)c12 (single isomer, unassigned) [compound 424]
Skeletal EC25 ([1]; Y75 value): 4490 nM | Atrial EC25 [2, 4]: 1910 nM | Ventricular EC25 ([3]; Y75 value): 17240 nM

Structure (SMILES): C[C@H](NC(=O)Cc1cc2cc(F)c(F)cc2[nH]c1=O)c1ccc(C#N)cn1 [compound 1115]
Skeletal EC25 ([1]; Y75 value (no ‡ mark)): 11400 nM | Atrial EC25 ([2]; Y75 value (no ‡ mark)): 27670 nM | Ventricular EC25 ([3]; Y75 value (no ‡ mark)): 69620 nM

Structure (SMILES): Cc1c(CC(=O)N[C@H]2c3c(F)cc(F)cc3OC2(C)C)c(=O)[nH]c2ccnc(C#N)c12 (single isomer, unassigned) [compound 187]
Skeletal EC25 ([1]; Y75 value): 50 nM | Atrial EC25 [2, 4]: 110 nM | Ventricular EC25 ([3]; Y75 value): 1360 nM

Structure (SMILES): C[C@H](NC(=O)C1(c2cc3c(F)c(F)ccc3[nH]c2=O)CC1)c1ncc(C#N)cn1 (single isomer, unassigned) [compound 2550]
Skeletal EC25 ([1]; Y75 value (no ‡ mark)): 1220 nM | Atrial EC25 ([2]; Y75 value (no ‡ mark)): 1390 nM | Ventricular EC25 ([3]; Y75 value (no ‡ mark)): 77930 nM

Structure (SMILES): C[C@H](NC(=O)C1(c2cc3c(F)c(F)ccc3[nH]c2=O)CC1)c1cnc(C#N)cn1 (single isomer, unassigned) [compound 4830]
Skeletal EC25 ([1]; Y75 value (no ‡ mark)): 1340 nM | Atrial EC25 ([2]; Y75 value (no ‡ mark)): 460 nM | Ventricular EC25 ([3]; Y75 value (no ‡ mark)): 100000 nM

Structure (SMILES): O=C(Cc1cc2c(F)c(F)ccc2[nH]c1=O)N[C@H]1COc2ncccc21 (single isomer, unassigned) [compound 64]
Skeletal EC25 ([1]; Y75 value (no ‡ mark)): 83260 nM | Atrial EC25 ([2]; Y75 value (no ‡ mark)): 100000 nM | Ventricular EC25 ([3]; Y75 value (no ‡ mark)): 100000 nM

Structure (SMILES): C[C@H](NC(=O)[C@H](C)c1c(C(F)(F)F)c2cc(F)ccc2[nH]c1=O)c1ccc(F)cc1F (single isomer, unassigned) [compound 58]
Skeletal EC25 ([1]; Y75 value (no ‡ mark)): 150 nM | Atrial EC25 ([2]; Y75 value (no ‡ mark)): 60 nM | Ventricular EC25 ([3]; Y75 value (no ‡ mark)): 1320 nM

Structure (SMILES): Cc1nccc2[nH]c(=O)c(C(F)(F)C(=O)N[C@H](C)c3ncc(C#N)cc3F)c(C)c12 (single isomer, unassigned) [compound 3513]
Skeletal EC25 ([1]; Y75 value): 5800 nM | Atrial EC25 [2, 4]: 4940 nM | Ventricular EC25 ([3]; Y75 value): 62330 nM

Structure (SMILES): Cc1c(C2(C(=O)N[C@H](C)c3cc(C#N)ccn3)CC2)c(=O)[nH]c2ccc(F)c(F)c12 (single isomer, unassigned) [compound 2539]
Skeletal EC25 ([1]; Y75 value (no ‡ mark)): 100000 nM | Atrial EC25 ([2]; Y75 value (no ‡ mark)): 2760 nM | Ventricular EC25 ([3]; Y75 value (no ‡ mark)): 100000 nM

Structure (SMILES): Cc1c(CC(=O)N[C@@H](CO)c2ncc(F)cc2F)c(=O)[nH]c2ccnc(C(F)(F)F)c12 [compound 264]
Skeletal EC25 ([1]; Y75 value): 570 nM | Atrial EC25 [2, 4]: 290 nM | Ventricular EC25 ([3]; Y75 value): 2730 nM

Further lines, results first:

Skeletal EC25 ([1]; Y75 value): 190 nM | Atrial EC25 [2, 4]: 2110 nM | Ventricular EC25 ([3]; Y75 value): 49130 nM
Structure (SMILES): CNc1nccc2[nH]c(=O)c(CC(=O)N[C@@H](C)c3ccc(F)cc3F)c(C)c12 [compound 354]

Skeletal EC25 ([1]; Y75 value): 250 nM | Atrial EC25 [2, 4]: 380 nM | Ventricular EC25 ([3]; Y75 value): 11630 nM
Structure (SMILES): Cc1nccc2[nH]c(=O)c(CC(=O)N[C@@H](C)c3ccc(F)cc3F)c(C(F)(F)F)c12 [compound 430]

Skeletal EC25 ([1]; Y75 value): 1610 nM | Atrial EC25 [2, 4]: 100000 nM | Ventricular EC25 ([3]; Y75 value): 100000 nM
Structure (SMILES): Cc1c(CC(=O)N[C@@H](C)c2ccc(F)cc2F)c(=O)[nH]c2ccnc(OCC(C)(C)F)c12 [compound 372]

Skeletal EC25 ([1]; Y75 value): 1240 nM | Atrial EC25 [2, 4]: 6060 nM | Ventricular EC25 ([3]; Y75 value): 62810 nM
Structure (SMILES): Cc1c(CC(=O)N[C@H](C)c2ccc(C#N)cn2)c(=O)[nH]c2ccnc(C(F)(F)F)c12 [compound 155]

Skeletal EC25 ([1]; Y75 value): 100000 nM | Atrial EC25 [2, 4]: 100000 nM | Ventricular EC25 ([3]; Y75 value): 100000 nM
Structure (SMILES): COc1ccc([C@@H](C)NC(=O)Cc2c(C)c3c(C)nccc3[nH]c2=O)cn1 (single isomer, unassigned) [compound 290]

Skeletal EC25 ([1]; Y75 value (no ‡ mark)): 7390 nM | Atrial EC25 ([2]; Y75 value (no ‡ mark)): 18000 nM | Ventricular EC25 ([3]; Y75 value (no ‡ mark)): 76000 nM
Structure (SMILES): Cc1c(CC(=O)N[C@@H](C)c2ncc(C#N)cn2)c(=O)[nH]c2cc(F)ccc12 [compound 1041]

Skeletal EC25 ([1]; Y75 value): 240 nM | Atrial EC25 [2, 4]: 510 nM | Ventricular EC25 ([3]; Y75 value): 1490 nM
Structure (SMILES): Cc1nccc2[nH]c(=O)c(C3(C(=O)N[C@H](C)c4ccc(C#N)cc4F)CC3)c(C)c12 (single isomer, unassigned) [compound 3516]

Skeletal EC25 ([1]; Y75 value): 110 nM | Atrial EC25 [2, 4]: 1170 nM | Ventricular EC25 ([3]; Y75 value): 6350 nM
Structure (SMILES): Cc1nccc2[nH]c(=O)c(CC(=O)N[C@@H](C)c3ccc(F)cc3F)c(C#N)c12 [compound 159]

Skeletal EC25 ([1]; Y75 value (no ‡ mark)): 7030 nM | Atrial EC25 ([2]; Y75 value (no ‡ mark)): 1010 nM | Ventricular EC25 ([3]; Y75 value (no ‡ mark)): 4160 nM
Structure (SMILES): Cc1c(CC(=O)N[C@H](C)c2ncc(C3COC3)cn2)c(=O)[nH]c2ccc(F)c(F)c12 (single isomer, unassigned) [compound 2043]

Skeletal EC25 ([1]; Y75 value (no ‡ mark)): 250 nM | Atrial EC25 ([2]; Y75 value (no ‡ mark)): 520 nM | Ventricular EC25 ([3]; Y75 value (no ‡ mark)): 1040 nM
Structure (SMILES): CC[C@@H](NC(=O)Cc1c(C)c2c(C)c(F)ccc2[nH]c1=O)c1ncc(C#N)cn1 (single isomer, unassigned) [compound 4833]

Skeletal EC25 ([1]; Y75 value (no ‡ mark)): 0 nM | Atrial EC25 ([2]; Y75 value (no ‡ mark)): 80 nM | Ventricular EC25 ([3]; Y75 value (no ‡ mark)): 60 nM
Structure (SMILES): Cc1nc(C#N)cnc1[C@H](C)NC(=O)Cc1c(C)c2c(F)c(F)ccc2[nH]c1=O [compound 1140]

Skeletal EC25 ([1]; Y75 value (no ‡ mark)): 120 nM | Atrial EC25 ([2]; Y75 value (no ‡ mark)): 70 nM | Ventricular EC25 ([3]; Y75 value (no ‡ mark)): 60 nM
Structure (SMILES): Cc1nc(C#N)cnc1[C@@H](C)NC(=O)Cc1c(C)c2cc(F)ccc2[nH]c1=O [compound 1068]

Skeletal EC25 ([1]; Y75 value): 340 nM | Atrial EC25 [2, 4]: 270 nM | Ventricular EC25 ([3]; Y75 value): 5520 nM
Structure (SMILES): Cc1c(CC(=O)N[C@@H](C)c2ccc(F)cc2F)c(=O)[nH]c2ccc(C#N)nc12 [compound 281]

Skeletal EC25 ([1]; Y75 value): 1020 nM | Atrial EC25 [2, 4]: 100000 nM | Ventricular EC25 ([3]; Y75 value): 100000 nM
Structure (SMILES): Cc1c(CC(=O)N[C@H](C)c2ccc(C#N)cc2F)c(=O)[nH]c2ccnc(OC3CC3)c12 [compound 201]

Skeletal EC25 ([1]; Y75 value (no ‡ mark)): 20 nM | Atrial EC25 ([2]; Y75 value (no ‡ mark)): 40 nM | Ventricular EC25 ([3]; Y75 value (no ‡ mark)): 50 nM
Structure (SMILES): Cc1c(CC(=O)N[C@H](C)c2ccc(C#N)cc2F)c(=O)[nH]c2ccc(F)c(C(F)(F)F)c12 [compound 37]

Skeletal EC25 ([1]; Y75 value (no ‡ mark)): 30 nM | Atrial EC25 ([2]; Y75 value (no ‡ mark)): 130 nM | Ventricular EC25 ([3]; Y75 value (no ‡ mark)): 70 nM
Structure (SMILES): Cc1nc(C#N)ccc1[C@H](C)NC(=O)Cc1c(C)c2c(C)c(F)ccc2[nH]c1=O (single isomer, unassigned) [compound 2079]
